The target of the assay is human GPR40 (Homo sapiens, UniProt O14842). Briefly: Inositol Phosphate Turnover (IP1) Assay 2. Further details: expressed in transfected cells. It is filed as cell-based. The method, then: Human and mouse GPR40 stable cell-lines were generated in CHO cells stably expressing NFAT BLA (Beta-lactamase). A human GPR40 stable cell-line was generated in HEK cells stably expressing the aequorin expressing reporter. The expression plasmids were transfected using lipofectamine (Life Technologies) following manufacturer's instructions. Stable cell-lines were generated following drug selection.
The assay is performed in 384-well format. HEK cells stably expressing human GPR40 are plated at 15,000 cells per well in growth medium (DMEM/10% fetal calf serum). Cell plates are then incubated 16 hours at 37 degrees in a 5% CO2 incubator.
Measurement of Inositol Phosphate Turnover (IP1) is performed using the CisBio IP-One kit (Part number 62IPAPEB). After the 16 hour incubation, the cells are washed with HEPES buffer and 10 ul of stimulation buffer (prepared as described in the kit) is added to each well. In a separate plate, compounds are diluted in DMSO (400-fold over the final concentration in the assay well) and 25 nl is acoustically transferred to the appropriate well in the assay cell plate. The plates are then incubated for 60 minutes at 37 degrees. 10 ul of detection buffer (also prepared as described in the IP-One kit) is added to each well and the plates are incubated for 60 minutes in the dark. The plates are then read in a Perkin Elmer EnVision or equivalent reader able to measure FRET.

Setting [1] is: HEK cells stably expressing human GPR40, Table 2, read-out: Human IP1.
Setting [2] is: HEK cells stably expressing human GPR40, Table 3, read-out: Human IP1 activity.

The source of these data is patent US9840512B2, “Antidiabetic bicyclic compounds” (Merck Sharp & Dohme Corp., priority 2013, dated 2017).

Read-outs that look alike come from different tables or passages of the source.

human GPR40, sequence (O14842 whole entry): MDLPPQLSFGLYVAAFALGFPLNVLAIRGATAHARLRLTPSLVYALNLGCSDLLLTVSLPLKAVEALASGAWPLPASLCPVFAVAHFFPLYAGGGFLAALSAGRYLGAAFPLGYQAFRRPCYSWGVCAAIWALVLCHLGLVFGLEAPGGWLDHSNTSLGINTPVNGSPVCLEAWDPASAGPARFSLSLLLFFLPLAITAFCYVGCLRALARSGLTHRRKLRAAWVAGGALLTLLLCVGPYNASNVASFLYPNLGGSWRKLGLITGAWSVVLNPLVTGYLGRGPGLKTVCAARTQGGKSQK

For `O=C(O)C[C@H](c1ccc2c(c1)OC(c1ccc(-c3ccccc3)cc1)CC2)C1CC1` (mixture of isomers) [Example 80], the EC50 under setting [1] amounted to 130 nM.

In the case of `COc1cncc(-c2ccc(C3CCc4ccc([C@@H](CC(=O)O)C5CC5)cc4O3)c(F)c2)c1` (mixture of isomers) [Example 86], under setting [1], the EC50 came to 363 nM.

For the molecule `CN1CCOc2cc(-c3ccc(C4CCc5ccc([C@@H](CC(=O)O)C6CC6)cc5O4)c(F)c3)ccc21` (mixture of isomers) [Example 87], the EC50 under setting [1] was determined as 1390 nM.

In the case of `COc1ccc(F)c(-c2ccc(C3CCc4ccc([C@@H](CC(=O)O)C5CC5)cc4O3)c(F)c2)c1` (mixture of isomers) [Example 88], the EC50 under setting [1] is 6.5 nM.

`COc1cccc(-c2ccc(C3CCc4ccc([C@@H](CC(=O)O)C5CC5)cc4O3)c(F)c2)c1` (mixture of isomers) [Example 90]: under setting [1], the EC50 stood at 10.6 nM.

As for `COc1cc(-c2ccc(C3CCc4ccc([C@@H](CC(=O)O)C5CC5)cc4O3)c(F)c2)c(F)cn1` (mixture of isomers) [Example 91], the EC50 under setting [1] is 3.6 nM.

As for `COc1ccc(Cl)c(-c2ccc(C3CCc4ccc([C@@H](CC(=O)O)C5CC5)cc4O3)c(F)c2)c1` (mixture of isomers) [Example 92], the EC50 under setting [1] was 19 nM.

In the case of `COc1cncc(-c2ccc(C3CCc4ccc([C@@H](CC(=O)O)C5CC5)cc4O3)c(F)c2)n1` (mixture of isomers) [Example 93], the EC50 under setting [1] came to 488 nM.

Regarding `COc1cc(-c2ccc(C3CCc4ccc([C@@H](CC(=O)O)C5CC5)cc4O3)c(F)c2)c(F)cc1F` (mixture of isomers) [Example 95], the EC50 under setting [1] was found to be 218 nM.

Regarding `COc1cc(-c2ccc(C3CCc4ccc([C@@H](CC(=O)O)C5CC5)cc4O3)c(F)c2)ccn1` (mixture of isomers) [Example 96], the EC50 under setting [1] was 14 nM.

Regarding `COc1ccc(F)c(-c2ccc(C3CCc4ccc([C@@H](CC(=O)O)C5CC5)cc4O3)cc2OC(F)(F)F)c1` (mixture of isomers) [Example 99], under setting [1], the EC50 turned out to be 29 nM.

As to `COc1ccc(F)c(-c2ccc(C3CCc4ccc([C@H](C5CC5)[C@H](C)C(=O)O)cc4O3)cc2OC(F)(F)F)c1` (mixture of isomers) [Example 100], the EC50 under setting [1] amounted to 32 nM.

Consider `COc1ccc(F)c(-c2ccc(C3CCc4ccc([C@@H](CC(=O)O)C5CC5)cc4O3)cc2[C@H]2CCCC2(C)C)c1` (mixture of isomers) [Example 102], for which the EC50 under setting [1] is 66 nM.

For the molecule `COc1ccc(F)c(-c2ccc(C3CCc4ccc([C@@H](CC(=O)O)C5CC5)cc4O3)cc2[C@@H]2CCCC2(C)C)c1` (mixture of isomers) [Example 103], under setting [1], the EC50 was found to be 6.2 nM.

With `COc1ccc(F)c(-c2ccc(C3CCc4ccc([C@@H](CC(=O)O)C5CC5)cc4O3)nc2)c1` (mixture of isomers) [Example 104], the EC50 under setting [1] came to 16 nM.

As to `C[C@H](C(=O)O)[C@H](c1ccc2c(c1)OC(c1ccc(-c3cc(O)ccc3F)cn1)CC2)C1CC1` (mixture of isomers) [Example 107], the EC50 under setting [1] came to 132 nM.

`COc1ccc(F)c(-c2ccc(C3CCc4ccc([C@H](C5CC5)[C@H](C)C(=O)O)cc4O3)nc2C2=CCCC2(C)C)c1` (mixture of isomers) [Example 114]: under setting [1], the EC50 is 8.8 nM.

Turning to `COc1ccc(F)c(-c2ccc(C3CCc4ccc([C@H](C5CC5)[C@H](C)C(=O)O)cc4O3)c(C(F)(F)F)n2)c1` (mixture of isomers) [Example 116], the EC50 under setting [1] was 17 nM.

With `COc1cc(-c2cnc(C3CCc4ccc([C@H](C5CC5)[C@H](C)C(=O)O)cc4O3)c(F)c2)ccn1` (mixture of isomers) [Example 121], the EC50 under setting [1] turned out to be 11 nM.

For the molecule `COc1ccc(F)c(-c2ccc(C3CCc4ccc([C@@H](CC(=O)O)C5CC5)cc4O3)cc2C(OC)C2CC2)c1` (mixture of isomers) [Example 126], under setting [1], the EC50 is 14.1 nM.

`COc1ccc(F)c(-c2ccc(C3CCc4ccc([C@@H](CC(=O)O)C5CC5)cc4O3)cc2C(OC)C(F)(F)F)c1` (mixture of isomers) [Example 127]: the EC50 under setting [1] came to 41.5 nM.

On to `COc1ccc(F)c(-c2ccc(C3CCc4ccc([C@H](C5CC5)[C@H](C)C(=O)O)cc4O3)cc2C(OC)C(C)(C)C)c1` (mixture of isomers) [Example 128], for which the EC50 under setting [1] came out at 3.2 nM.

Consider `COc1cc(-c2ccc(C3CCc4ccc([C@H](C5CC5)[C@H](C)C(=O)O)cc4O3)cc2C(OC)C(C)(C)C)ccn1` (mixture of isomers) [Example 129], for which, under setting [1], the EC50 was 0.5 nM.

Regarding `COc1cc(-c2ccc(C3CCc4ccc([C@H](C5CC5)[C@H](C)C(=O)O)cc4O3)cc2C(OC)C2CC2)c(F)cn1` (mixture of isomers) [Example 130], under setting [1], the EC50 was 0.9 nM.

`COc1ccc(F)c(-c2cnc(C3CCc4ccc([C@H](C5CC5)[C@H](C)C(=O)O)cc4O3)cn2)c1` (mixture of isomers) [Example 131]: under setting [1], the EC50 turned out to be 1.7 nM.

`COc1ccc(F)c(-c2ccc(C3CCc4ccc([C@H](C5CC5)[C@H](C)C(=O)O)cc4O3)nc2N2CCC2)c1` (mixture of isomers) [Example 132]: the EC50 under setting [1] was 18 nM.

On to `COc1cc(-c2ccc(C3CCc4ccc([C@H](C5CC5)[C@H](C)C(=O)O)cc4O3)c(F)c2)ccn1` (mixture of isomers) [Example 133, (2S,3R)-3-cyclopropyl-3-(2-(2-fluoro-4-(2-methoxypyridin-4-yl)phenyl)-chroman-7-yl)-2-methylpropanoic acid], for which the EC50 under setting [1] was 1.2 nM.

In the case of `COc1ccc(F)c(-c2ccc(C3CCc4ccc([C@H](C5CC5)[C@H](C)C(=O)O)nc4O3)cc2)c1` (mixture of isomers) [Example 137], the EC50 under setting [1] was determined as 454 nM.

For `COc1ccc(F)c(-c2ccc(C3COc4ccc([C@H](C5CC5)[C@H](C)C(=O)O)c(F)c4O3)nc2)c1` (mixture of isomers) [Example 165], under setting [2], the EC50 was 2.6 nM.

For `COc1ccc(F)c(-c2ccc(C3COc4ccc([C@@H](CC(=O)O)C5CC5)cc4O3)cc2)c1` (mixture of isomers) [Example 166], the EC50 under setting [2] turned out to be 18.8 nM.

On to `COc1ccc(F)c(-c2ccc(C3COc4ccc([C@H](C5CC5)[C@H](C)C(=O)O)cc4O3)cc2OC(F)(F)F)c1` (mixture of isomers) [Example 169], for which the EC50 under setting [2] worked out at 9.5 nM.

On to `COc1ccc(F)c(-c2ccc(C3CCc4ccc([C@@H](CC(=O)O)C5CC5)cc4O3)cc2)c1` (single isomer, unassigned) [Example 61], for which, under setting [1], the EC50 came out at 36 nM.

As to `COc1ccc(F)c(-c2ccc(C3CCc4ccc([C@@H](CC(=O)O)C5CC5)cc4O3)cc2)c1` (single isomer, unassigned) [Example 62], under setting [1], the EC50 was determined as 18 nM.

For the molecule `COc1ccc(F)c(-c2ccc([C@@H]3CCc4ccc([C@H](C5CC5)[C@H](C)C(=O)O)cc4O3)cc2)c1` (single isomer, unassigned) [Example 63], the EC50 under setting [1] worked out at 3.3 nM.

As to `COc1ccc(F)c(-c2ccc([C@H]3CCc4ccc([C@H](C5CC5)[C@H](C)C(=O)O)cc4O3)cc2)c1` (single isomer, unassigned) [Example 64], the EC50 under setting [1] came to 1.1 nM.

Regarding `COc1ccc(F)c(-c2ccc(C3CCc4ccc([C@H](C5CC5)[C@@H](C)C(=O)O)cc4O3)cc2)c1` (single isomer, unassigned) [Example 65], the EC50 under setting [1] was 51 nM.

Turning to `COc1ccc(F)c(-c2ccc(C3CCc4ccc([C@H](C5CC5)[C@@H](C)C(=O)O)cc4O3)cc2)c1` (single isomer, unassigned) [Example 66], under setting [1], the EC50 is 53 nM.

Consider `C[C@H](C(=O)O)[C@H](c1ccc2c(c1)OC(c1ccc(-c3cc(O)ccc3F)cc1)CC2)C1CC1` (single isomer, unassigned) [Example 67], for which the EC50 under setting [1] was 21 nM.

As for `C[C@H](C(=O)O)[C@H](c1ccc2c(c1)OC(c1ccc(-c3cc(O)ccc3F)cc1)CC2)C1CC1` (single isomer, unassigned) [Example 68], under setting [1], the EC50 came out at 1.9 nM.

With `COc1ccc(F)c(-c2ccc(C3CCc4ccc([C@H](C5CC5)[C@H](C)C(=O)O)cc4O3)nc2)c1` (single isomer, unassigned) [Example 97a], the EC50 under setting [1] is 0.9 nM.

Regarding `COc1ccc(F)c(-c2ccc(C3CCc4ccc([C@H](C5CC5)[C@@H](C)C(=O)O)cc4O3)nc2)c1` (single isomer, unassigned) [Example 97b], the EC50 under setting [1] came out at 30 nM.

As to `COc1ccc(F)c(-c2ccc(C3CCc4ccc([C@H](C5CC5)[C@H](C)C(=O)O)cc4O3)nc2)c1` (single isomer, unassigned) [Example 97c], the EC50 under setting [1] was 2.9 nM.

As for `COc1ccc(F)c(-c2ccc(C3CCc4ccc([C@H](C5CC5)[C@@H](C)C(=O)O)cc4O3)nc2)c1` (single isomer, unassigned) [Example 97d], under setting [1], the EC50 amounted to 43 nM.

For `COc1ccc(F)c(-c2ccc(C3CCc4ccc(C(CC(=O)O)C5CC5)cc4O3)cc2C2=CCCC2(C)C)c1` (single isomer, unassigned) [Example 101a], the EC50 under setting [1] came to 662 nM.

In the case of `COc1ccc(F)c(-c2ccc(C3CCc4ccc(C(CC(=O)O)C5CC5)cc4O3)cc2C2=CCCC2(C)C)c1` (single isomer, unassigned) [Example 101b], the EC50 under setting [1] was found to be 704 nM.

For the molecule `COc1ccc(F)c(-c2ccc(C3CCc4ccc(C(CC(=O)O)C5CC5)cc4O3)cc2C2=CCCC2(C)C)c1` (single isomer, unassigned) [Example 101c], under setting [1], the EC50 worked out at 58 nM.
